The values below are quoted from earlier work in US11517526B2, “Stabilised hypochlorous solutions and their medical cosmetic uses” (Clinical Health Technologies Ltd, priority 2019, dated 2022).

The conditions of data set [1]: natural state, unless stabilised.

As a reminder, the half-life is how long it takes for the measured level to halve. For the compound `OCl` [hypochlorous acid (HOCl), hypochlorous acid], in the data set with microbes, the “effectiveness as an antimicrobial relative to hypochlorite (OCl−)” value is on record as 80-100 times. For the same compound, the half-life in data set [1] was 48 h.
